Patent US20240060113A1, “PRESERVATION OF FETAL NUCLEIC ACIDS IN MATERNAL PLASMA” (STRECK LLC, priority 2009, published 2024)

System: non-human (lambda) DNA
Assay: Lambda DNA spiked into plasma, stored at room temperature, Quantitative PCR (Example 2, FIG. 3)
Details: plasma stored at room temperature 0 to 14 days
Procedure: Blood samples from the same donor are drawn into two different types of blood collection tubes. One tube contains 500 g/L IDU, 81 g/L Tripotassium EDTA and 47 g/L glycine. The other tube contains only Heparin. All samples are centrifuged at 2100 g for 30 minutes at room temperature to separate the plasma. The plasma is then transferred to new tubes and non-human (lambda) DNA is then spiked into the plasma tubes. The spiked samples are then stored at room temperature for 0, 1, 2, 3, 4, 7, 11, and 14 days. Free circulating DNA is purified using the QIAamp® DNA Blood Mini Kit available from QIAGEN Inc. (Valencia, CA). DNA is extracted from each plasma sample. The samples are then amplified by Quantitative PCR (using iQ SYBR Green Supermix reagents available from BIO-RAD Laboratories (Hercules, California)) to identify the amount of lambda DNA present. […] The expected results of this example are shown in graphic format at FIG. 3. This example confirms that the compositions of the present invention are able to maintain the integrity and amount of DNA present in a blood sample.

Heparin
relative percentage of lambda DNA present: decreases at every consecutive measurement
